The source of these data is patent US20180237441A1, “Chemical Compounds” (GlaxoSmithKline Intellectual Property (No.2) Limited, priority 2015, published 2018).

Where two headings read alike, the source gives them in different places.

For the experiment, the target named is T1, PERK (Homo sapiens, UniProt Q9NZJ5).
T1 sequence (Q9NZJ5 30-1116): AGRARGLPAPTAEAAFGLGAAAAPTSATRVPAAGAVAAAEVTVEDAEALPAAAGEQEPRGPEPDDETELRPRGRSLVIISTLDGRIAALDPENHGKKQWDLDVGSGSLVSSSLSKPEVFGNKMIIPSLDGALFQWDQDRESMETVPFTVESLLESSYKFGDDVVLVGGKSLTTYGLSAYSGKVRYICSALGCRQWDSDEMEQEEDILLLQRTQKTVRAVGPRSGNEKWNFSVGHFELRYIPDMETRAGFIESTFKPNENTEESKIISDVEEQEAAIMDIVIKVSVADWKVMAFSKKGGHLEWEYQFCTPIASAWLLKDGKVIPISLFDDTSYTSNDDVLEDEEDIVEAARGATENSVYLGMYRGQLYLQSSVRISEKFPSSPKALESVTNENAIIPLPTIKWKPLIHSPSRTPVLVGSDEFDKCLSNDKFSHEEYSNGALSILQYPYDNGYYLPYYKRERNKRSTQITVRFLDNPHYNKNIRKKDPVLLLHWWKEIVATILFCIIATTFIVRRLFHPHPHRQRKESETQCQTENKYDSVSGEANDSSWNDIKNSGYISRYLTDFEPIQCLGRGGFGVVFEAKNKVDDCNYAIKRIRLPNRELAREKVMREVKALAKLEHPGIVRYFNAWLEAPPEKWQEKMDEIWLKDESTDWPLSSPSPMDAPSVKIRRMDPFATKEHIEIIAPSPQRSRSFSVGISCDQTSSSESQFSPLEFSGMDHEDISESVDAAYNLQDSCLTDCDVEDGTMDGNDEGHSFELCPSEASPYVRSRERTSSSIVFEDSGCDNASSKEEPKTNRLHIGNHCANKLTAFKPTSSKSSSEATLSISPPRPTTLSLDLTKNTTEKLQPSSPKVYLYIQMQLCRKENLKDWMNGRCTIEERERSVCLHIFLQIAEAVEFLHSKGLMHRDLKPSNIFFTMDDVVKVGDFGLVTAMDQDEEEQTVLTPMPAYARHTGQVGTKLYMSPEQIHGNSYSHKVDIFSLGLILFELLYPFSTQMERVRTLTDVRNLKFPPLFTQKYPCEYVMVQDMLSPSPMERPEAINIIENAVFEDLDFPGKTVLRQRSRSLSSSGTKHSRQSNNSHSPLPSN
Description: PERK enzyme assay (HTRF). The format is biochemical. To be noted: at least one experimental run. On the procedure:
Compounds of the invention were assayed for PERK enzyme inhibitory activity with modifications to previously reported conditions (Axten et al. J. Med. Chem., 2012, 55, 7193-7207). Briefly, various concentrations of compounds (maximum 1% DMSO) were dispensed into 384-well plates containing GST-PERK enzyme. After 30-60 minutes of compound pre-incubation, ATP and biotin-eIF2α were added and after 60 minutes the reaction was quenched. After 2 hrs, a fluorescence plate reader was used to measure inhibition and IC50s were calculated.
Enzyme Assay Protocol for PKR-Like Endoplasmic Reticulum Kinase (PERK)—HTRF —% Inhibition
Assay Buffer contains HEPES (pH7.5) 10 mM, CHAPS 2 mM, MgCl2 5 mM and DTT 1 mM in water
Detection Buffer contains HEPES (pH7.5) 10 mM and CHAPS 2 mM in water Assay Plate Preparation:
1. Enzyme Preparation: • 4× Enzyme solution was prepared immediately prior to adding to compound plates. • 3 nM of GST-PERK in Assay buffer. Final [PERK] in 10 μl assay volume=0.75 nM
2. Substrate Preparation: • 4× Substrate solution was prepared immediately prior to adding to compound plates. • 4× Substrate solution in assay buffer 2000 μM ATP and 160 nM Biotin-eIF2α • Final [ATP] in 10 μl assay volume=500 μM • Final [biotin-eIF2a] in 10 μl assay volume=40 nM.
3. Quench/Detection Solution: • 16 nM eIF2 Phospho-Antibody • 16 nM Eu anti-Rabbit IgG • 160 nM Streptavidin-APC • 60 mM EDTA • Final concentration in 10 μL assay volume: 4 nM eIF2 Phospho-Antibody, 4 nM Eu anti-Rabbit IgG 40 nM Streptavidin-APC
The activity of compounds in the PERK enzyme assay was determined at PERK Enzyme (500 μM ATP) IC50 (nM).
(In TR-FRET formats the signal depends on donor and acceptor labels being close together.)

Setting [1] is: PERK Enzyme (500 μM ATP) IC50, read-out: PERK Activity.
[2] abbreviates: 500 μM ATP, read-out: PERK Enzyme (500 μM ATP) IC50.

Regarding “1-(4-(4-amino-2,7-dimethyl-7H- pyrrolo[2,3-d]pyrimidin-5-yl)-3- fluorophenyl)-4-(2,4-difluorophenyl)- 3-trifluoroethyl)imidazolidin-2-one [Example 83]”, under setting [1], the IC50 lay within 100 to 1000 nM.
Consider `CCN1C(=O)N(c2ccc(-c3cn(C)c4ncnc(N)c34)c(F)c2)CC1c1cc(F)ccc1F` (racemic) [Example 1, 1-(4-(4-amino-7-methyl-7H-pyrrolo[2,3-d]pyrimidin-5-yl)-3-fluorophenyl)-4-(2,5-difluorophenyl)-3-ethylimidazolidin-2-one], for which, under setting [1], the IC50 is 100 to 1000 nM.
In the case of `CN1C(=O)N(c2ccc(-c3cn(C4CC4)c4ncnc(N)c34)c(F)c2)CC1c1cc(F)cc(F)c1` (racemic) [Example 175, 1-(4-(4-amino-7-cyclopropyl-7H-pvrrolo[2,3-d]pyrimidin-5-yl)-3-fluorophenyl)-4-(3,5-difluorophenyl)-3-methylimidazolidin-2-one], under setting [1], the IC50 was below 100 nM.
In the case of `CCN1C(=O)N(c2ccc(-c3cn(C)c4ncnc(N)c34)c(F)c2)CC1c1cc(F)ccc1F` (single isomer, unassigned) [Example 2, 1-(4-(4-amino-7-methyl-7H-pyrrolo[2,3-d]pyrimidin-5-yl)-3-fluorophenyl)-4-(2,5-difluorophenyl)-3-ethylimidazolidin-2-one], the IC50 under setting [2] was 77.4 nM and the IC50 under setting [1] was below 100 nM.
Consider `CCN1C(=O)N(c2ccc(-c3cn(C)c4ncnc(N)c34)c(F)c2)CC1c1cc(F)ccc1F` (single isomer, unassigned) [Example 3, 1-(4-(4-amino-7-methyl-7H-pyrrolo[2,3-d]pyrimidin-5-yl)-3-fluorophenyl)-4-(2,5-difluorophenyl)-3-ethylimidazolidin-2-one], for which the IC50 under setting [1] was in the range of 100 to 1000 nM.
On the same count and under the same terms, the value for `Cc1nc(N)c2c(-c3ccc(N4CC(c5ccc(F)cc5F)N(C)C4=O)cc3F)cn(C3CC3)c2n1` (single isomer, unassigned) [Example 8, 1-(4-(4-amino-7-cyclopropyl-2-methyl-7H-pyrrolo[2,3-d]pyrimidin-5-yl)-3-fluorophenyl)-4-(2,4-difluorophenyl)-3-methylimidazolidin-2-one] was below 100 nM; that for `Cc1nc(N)c2c(-c3ccc(N4CC(c5ccc(F)cc5F)N(C)C4=O)cc3F)cn(C3CC3)c2n1` (single isomer, unassigned) [Example 9, 1-(4-(4-amino-7-cyclopropyl-2-methyl-7H-pyrrolo[2,3-d]pyrimidin-5-yl)-3-fluorophenyl)-4-(2,4-difluorophenyl)-3-methylimidazolidin-2-one] was above 1000 nM; that for `Cc1nc(N)c2c(-c3ccc(N4CC(c5ccc(F)cc5F)N(C)C4=O)cc3F)c(C)n(C)c2n1` (single isomer, unassigned) [Example 10, 1-(4-(4-amino-2,6,7-trimethyl-7H-pyrrolo[2,3-d]pyrimidin-5-yl)-3-fluorophenyl)-4-(2,4-difluorophenyl)-3-methylimidazolidin-2-one] was above 1000 nM.
Still for that read-out and setting: next, `Cc1nc(N)c2c(-c3ccc(N4CC(c5ccc(F)cc5F)N(C)C4=O)cc3F)c(C)n(C)c2n1` (single isomer, unassigned) [Example 11, 1-(4-(4-amino-2,6,7-trimethyl-7H-pyrrolo[2,3-d]pyrimidin-5-yl)-3-fluorophenyl)-4-(2,4-difluorophenyl)-3-methylimidazolidin-2-one]: below 100 nM; `Cc1nc(N)c2c(-c3ccc(N4CC(c5ccc(F)cc5F)N(C)C4=O)cc3F)nn(C)c2n1` (single isomer, unassigned) [Example 12, 1-(4-(4-amino-1,6-dimethyl-1H-pyrazolo[3,4-d]pyrimidin-3-yl)-3-fluorophenyl)-4-(2,4-difluorophenyl)-3-methylimidazolidin-2-one]: below 100 nM; `Cc1nc(N)c2c(-c3ccc(N4CC(c5ccc(F)cc5F)N(C)C4=O)cc3F)nn(C)c2n1` (single isomer, unassigned) [Example 13, 1-(4-(4-amino-1,6-dimethyl-1H-pyrazolo[3,4-d]pyrimidin-3-yl)-3-fluorophenyl)-4-(2,4-difluorophenyl)-3-methylimidazolidin-2-one]: above 1000 nM.
With `Cc1nc(N)c2c(-c3ccc(N4CC(c5cc(F)ccc5F)N(C)C4=O)cc3F)cn(C)c2n1` (single isomer, unassigned) [Example 37, 1-(4-(4-amino-2,7-dimethyl-7H-pyrrolo[2,3-d]pyrimidin-5-yl)-3-fluorophenyl)-4-(2,5-difluorophenyl)-3-methylimidazolidin-2-one], under setting [1], the IC50 lay within 100 to 1000 nM.
For the compound `Cc1nc(N)c2c(-c3ccc(N4CC(c5cc(F)ccc5F)N(C)C4=O)cc3F)cn(C)c2n1` (single isomer, unassigned) [Example 38, 1-(4-(4-amino-2,7-dimethyl-7H-pyrrolo[2,3-d]pyrimidin-5-yl)-3-fluorophenyl)-4-(2,5-difluorophenyl)-3-methylimidazolidin-2-one], the IC50 under setting [1] was above 1000 nM.
Same read-out and setting: the value for `CCN1C(=O)N(c2ccc(-c3cn(C)c4nc(C)nc(N)c34)c(F)c2)CC1c1cc(F)ccc1F` (single isomer, unassigned) [Example 44, 1-(4-(4-amino-2,7-dimethyl-7H-pyrrolo[2,3-d]pyrimidin-5-yl)-3-fluorophenyl)-4-(2,5-difluorophenyl)-3-ethylimidazolidin-2-one] was below 100 nM; that for `CCN1C(=O)N(c2ccc(-c3cn(C)c4nc(C)nc(N)c34)c(F)c2)CC1c1cc(F)ccc1F` (single isomer, unassigned) [Example 45, 1-(4-(4-amino-2,7-dimethyl-7H-pyrrolo[2,3-d]pyrimidin-5-yl)-3-fluorophenyl)-4-(2,5-difluorophenyl)-3-ethylimidazolidin-2-one] was above 1000 nM.
Regarding `CN1C(=O)N(c2ccc(-c3cn(C)c4ncnc(N)c34)c(F)c2)CC1c1ccc(F)cc1F` (single isomer, unassigned) [Example 46, 1-(4-(4-amino-7-methyl-7H-pyrrolo[2,3-d]pyrimidin-5-yl)-3-fluorophenyl)-4-(2,4-difluorophenyl)-3-methylimidazolidin-2-one], the IC50 reads like this: under setting [2], 13.8 nM; under setting [1], below 100 nM.
On to `CN1C(=O)N(c2ccc(-c3cn(C)c4ncnc(N)c34)c(F)c2)CC1c1ccc(F)cc1F` (single isomer, unassigned) [Example 47, 1-(4-(4-amino-7-methyl-7H-pyrrolo[2,3-d]pyrimidin-5-yl)-3-fluorophenyl)-4-(2,4-difluorophenyl)-3-methylimidazolidin-2-one], for which the IC50 under setting [1] was above 1000 nM.
For `CN1C(=O)N(c2ccc(-c3cn(C)c4ncnc(N)c34)c(F)c2)CC1c1cc(F)cc(Cl)c1` (single isomer, unassigned) [Example 51, 1-(4-(4-amino-7-methyl-7H-pyrrolo[2,3-d]pyrimidin-5-yl)-3-fluorophenyl)-4-(3-chloro-5-fluorophenyl)-3-methylimidazolidin-2-one], the IC50 under setting [1] is below 100 nM.
Regarding `CN1C(=O)N(c2ccc(-c3cn(C)c4ncnc(N)c34)c(F)c2)CC1c1cc(F)cc(Cl)c1` (single isomer, unassigned) [Example 52, 1-(4-(4-amino-7-methyl-7H-pyrrolo[2,3-d]pyrimidin-5-yl)-3-fluorophenyl)-4-(3-chloro-5-fluorophenyl)-3-methylimidazolidin-2-one], the IC50 under setting [1] was 100 to 1000 nM.
